Measurements from article PMC3183052, “Immunoprotectivity of HLA-A2 CTL Peptides Derived from Respiratory Syncytial Virus Fusion Protein in HLA-A2 Transgenic Mouse” (PLoS ONE, 2011).
Entries after “also recorded” stand apart in the source; their conditions may differ.

What was measured:
[1] = tested on: splenocytic CD8+ T cells; assay: CFSE proliferation of CD8+ T cells after in vitro peptide restimulation; assay type: cell-based, mouse; settings: mice immunized s.c. twice with 50 µg peptide in IFA; splenocytes restimulated with 10 µg/mL peptide for 8 days
Protocol: (§1) To screen the immunodominance of epitopic peptide in the induction of RSV-F specific Th1/Th2 expression, HLA-A*0201 transgenic C57BL/6 mice were anesthetized with isoflurane and immunized with 1×10^7 pfu/50 µL of rAd-F0 or rAd-LacZ or 1×10^4 live RSV B1 via the intranasal (i.n.) route. Twenty days later, the mice were given booster immunization i.n. with the same dose. After 10 days of boost, mice were sacrificed and splenocytes were isolated for the cytokine ELISPOT assay. […] Mice body weight was monitored daily.
The splenocytes were isolated, labeled with 5-(6)-carboxyfluorescein diacetate succinimidyl ester (CFSE) (Sigma-Aldrich) and stimulated in vitro with 10 µg/mL of the synthetic peptides for 4 or 8 days. Proliferation of splenocytic CD4^+ and CD8^+ T cells was analyzed by flow cytometry (BD FACSCalibur) using PE-Cy5-labeled specific antibody against CD4 (eBioscience) or CD8 (eBioscience), respectively. Cell division index (CDI), a ratio of CFSE-diluted CD4^+ or CD8^+ T cells stimulated by peptide to CFSE-diluted unstimulated CD4^+ or CD8^+ T cells, was calculated as shown below; [drawing 1] […]
Figure 2 Epitope-specific CD4^+ and CD8^+ T-cell activation in peptide-immunized HLA-A*0201 transgenic mice. […] Proliferation of CD4^+ (A) or CD8^+ (B) lymphocytes in response to the different CD8 epitopes was analyzed by flow cytometry using anti-CD4 or CD8 antibodies conjugated with PE-Cy5. […]

[2] = tested on: RSV-B1; assay: Lung viral load after live RSV challenge (real-time RT-PCR of RSV N gene); assay type: in vivo, HLA-A*0201 transgenic C57BL/6 mice; settings: two s.c. doses of 50 µg peptide in IFA, challenge i.n. 1×10^7 pfu live RSV-B1, day 4 post-infection; 10 mice per group; vehicle mean = 0.95
Protocol: as §1
Lung RNA (5 µg) was mixed with 10 nmole random primers and 2 units of […] reverse transcriptase (Invitrogen) and incubated at 94°C for 10 minutes, 37°C for 30 minutes, and then at 4°C. The resulting cDNA was subjected to quantitative PCR analysis (The LightCycler® 480 Real-Time PCR system) with RSV N specific primer pairs, forward: 5′-[…]-3′ and reverse: 5′-[…]-3′. Expression of mouse GAPDH gene in the tested samples was detected as internal control by using specific primer pairs, forward: 5′-[…]-3′ and reverse: 5′-[…]-3′. The number of cycles (Ct) required for the amplification of the N gene and GAPDH was calculated. The relative expression of the N gene was calculated as followed: the individual Ct (RSV N) obtained from peptide- or vehicle-immunized lung was normalized by the respective Ct (GAPDH), and then [drawing 3] was divided by the mean of [drawing 4] . […]

[3] = tested on: CD4+CD25+ T cells; assay: Infiltration of CD4+CD25+ T cells in the lungs after RSV challenge; assay type: in vivo, mouse; settings: mice pre-immunized with peptide and challenged with live RSV; unshown results

Sequence: YMLTNSELL [peptide 14, HLA-A*0201-restricted 9-mer synthetic peptide from F protein of RSV-B1 strain]
- proliferation of CD8+ T cells (cell division index) [1]: ~3 fold
- expression of RSV N gene in the lungs (relative, normalized to GAPDH), mean [2]: no significant reduction; also recorded: reduced lung viral load only marginally
- infiltration of CD4+CD25+ T cells in the lungs [3]: increased infiltration
